Reference: patent US20220023436A1, “COMBINATION OF ANTIBODY-DRUG CONJUGATE WITH PARP INHIBITOR” (DAIICHI SANKYO COMPANY, LIMITED, priority 2018, published 2022)
Read-outs that look alike come from different tables or passages of the source.

Legend:
[1] = tested on: Human breast cancer cell line HCC70; assay type: cell-based
Protocol: (§1) For combination effects, differences between estimates of additive effects from the Loewe model (Greco W R. et al., Pharmacol. Rev. 1995 June; 47 (2): 331-85) and cell growth inhibition rates (%) subjected to sigmoid fitting were converted to matrices, and Synergy Scores were calculated from the matrix elements using a method described in the reference (Lehar J. et al., Nat Biotechnol. 2009 July; 27 (7):659-66). Besides, Synergy Score=0 indicates an additive effect; Synergy Score>0 indicates a synergistic effect; and Synergy Score<0 indicates an antagonistic effect.
(§2) Human breast cancer cell line HCC70, which was obtained from ATCC, was used for evaluation. […] Then, HCC70 cells suspended at 4×10^4 cells/mL with RPMI1640 Medium containing 10% fetal bovine serum were seeded at 2.5 μL/well, and cultured at 37° C. under 5%CO2 for 6 days. After culturing, a solution of CellTiter-Glo 2.0 Assay diluted with an equivalent volume of Glo Lysis buffer, 1× was added at 2 μL/well and subjected to incubation at room temperature for an hour, followed by measurement of luminescence intensity of each well.

[2] = tested on: Human gastric cancer cell line NCI-N87; assay type: cell-based
Protocol: Human gastric cancer cell line NCI-N87, which was obtained from ATCC (American Type Culture Collection), was used for evaluation. […] Then, NCI-N87 cells suspended at 4×10^4 cells/mL with RPMI1640 Medium containing 10% fetal bovine serum were seeded at 2.5 μL/well, and cultured at 37° C. under 5%CO2 for 6 days.
After culturing, a solution of CellTiter-Glo 2.0 Assay (Promega) diluted with an equivalent volume of Glo Lysis buffer, 1× (Promega) was added at 2 μL/well and subjected to incubation at room temperature for an hour, followed by measurement of luminescence intensity of each well.
Cell growth inhibition rate […] in each condition was calculated using the following formula: […]
T: average luminescence intensity of wells added with each sample
B: average luminescence intensity of wells added with DMSO and medium
C: average luminescence intensity of wells added with DMSO and cells
Furthermore, sigmoid fitting was performed for the concentration-dependent transition of cell growth inhibition rate in each combination condition using Genedata Screener Analyzer Version 14 (Genedata, hereinafter referred to as Screener).
as §1

[3] = tested on: Human breast cancer cell line KPL-4; assay type: cell-based; details: KPL-4 cell line
Protocol: as §1
as §2, with “KPL-4,” for “HCC70,”, “Dr. Junichi Kurebayashi in Kawasaki Medical School [British Journal of Cancer, (1999) 79 (5/6). 707-717],” for “ATCC,”, “KPL-4” for “HCC70”, “1×10^4” for “4×10^4”

[4] = tested on: Human lung cancer cell line EBC-1; assay type: cell-based; details: EBC-1 cell line
Protocol: as §1
as §2, with “lung” for “breast”, “EBC-1,” for “HCC70,”, “Health Science Research Resources Bank (current Japanese Collection of Research Bioresources [JCRB] Cell Bank),” for “ATCC,”, “EBC-1” for “HCC70”, “2×10^4” for “4×10^4”

[5] = tested on: Human pancreatic cancer cell line BxPC-3; assay type: cell-based; details: BxPC-3 cell line
Protocol: as §1
as §2, with “pancreatic” for “breast”, “BxPC-3,” for “HCC70,”, “BxPC-3” for “HCC70”, “Assay (Promega)” for “Assay”, “1× (Promega)” for “1×”

[6] = tested on: Human breast cancer cell line KPL-4; assay type: in vivo, BALB/c nude mice
Protocol: The calculation formula is as shown below.
Human breast cancer cell line KPL-4 [British Journal of Cancer, (1999) 79 (5/6).
Incidentally, in the following evaluation examples relating to antitumor studies, unless otherwise described, the studies are performed by the procedure used in this evaluation example.

[7] = tested on: Human ovarian cancer cell line OV-90; assay: Antitumor study (9), subcutaneously transplanted OV-90 cells, CDH6-ADC (1); details: OV-90 model, Day 17 after administration, single administration group; cachexia-like weight loss when tumor size exceeds 1500 mm^3
Protocol: (§3) Measurement and calculation formula: In all studies, the major axis and minor axis of tumors were measured twice a week with an electronic digital caliper (CD15-CX, Mitutoyo Corp.), and the tumor volume (mm^3) was calculated. The calculation formula is as shown below.
(§4) Tumor growth inhibition (%)=100×(1−T/C) • T: Average tumor volume of mice of test substance administration group • C: Average tumor volume of mice of control group
Talazoparib was dissolved with DMSO, diluted with 0.5% hydroxypropyl methylcellulose, and orally administered in a fluid volume of 10 mL/kg. […] Veliparib was dissolved with a 0.05M CH COON solution and orally administered in a fluid volume of 10 mL/kg.
Human ovarian cancer cell line OV-90, which was purchased from ATCC, was suspended into physiological saline, subcutaneously transplanted at 1×10^7 cells into the right side of female nude mice, and the mice were randomly grouped 14 days after the transplantation (Day 0). […] Single administration groups of each drug, a combined administration group, and a solvent administration group as a control group were set up.

[8] = tested on: Human ovarian cancer cell line SK-OV-3; assay type: in vivo, BALB/c nude mice; details: SK-OV-3 s.c. in nude mice; HER2-ADC (1) 3 mg/kg iv Day 0 and Day 14; olaparib 60 mg/kg, talazoparib 0.4 mg/kg once a day, five times a week, three weeks
Protocol: as §3
(§5) Tumor volume (mm^3)=1/2×Major axis (mm)×[Minor axis (mm)]^2
(§6) The HER2-ADC (1) was diluted with ABS buffer (10 mM acetate buffer [pH 5.5], 5% sorbitol), and intravenously administered in a fluid volume of 10 mL/kg to the tail vein. […] Talazoparib was dissolved with DMSO, diluted with 0.5% hydroxypropyl methylcellulose, and orally administered in a fluid volume of 10 mL/kg.
Human ovarian cancer cell line SK-OV-3 cells, which were purchased from ATCC (American Type Culture Collection), were maintained by nude mouse transplantation, subcutaneously transplanted in the form of a tumor mass of solid tumor (3×3×3 mm) into the right side of female nude mice, and the mice were randomly grouped 19 days after the transplantation (Day 0). HER2-ADC (1) was intravenously administered to the tail vein at a dose of 3 mg/kg on Day 0 and Day 14. […] Single administration groups of each drug, a combined administration group, and a solvent administration group as a control group were set up.

[9] = tested on: Human breast cancer cell line HCC70; assay: Antitumor study (7), subcutaneously transplanted HCC70 cells, HER3-ADC (1); assay type: in vivo; details: HCC70 s.c. in nude mice; HER3-ADC (1) 10 mg/kg iv Day 0, 7, 14; olaparib 100 mg/kg po, talazoparib 0.4 mg/kg po once a day, five times a week, two weeks
Protocol: (§7) Talazoparib was dissolved with dimethyl acetamide, diluted with 5% Kolliphor HS15/Dulbecco's phosphate-buffered saline, and orally administered in a fluid volume of 10 mL/kg.
(§8) In Examples 16 and 17, HER3-ADC (1) was diluted with ABS buffer (10 mM acetate buffer (pH 5.5), 5% sorbitol), and intravenously administered in a fluid volume of 10 mL/kg to the tail vein.
Human breast cancer cell line HCC70 was suspended into physiological saline, subcutaneously transplanted at 1×10^7 cells into the right side of female nude mice, and the mice were randomly grouped 13 days after the transplantation (Day 0). The HER3-ADC (1) was intravenously administered to the tail vein at a dose of 10 mg/kg on Day 0, Day 7 and Day 14. […] Single administration groups of each drug, a combined administration group, and a solvent administration group as a control group were set up.

[10] = tested on: Human breast cancer cell line MX-1; assay: Antitumor study (6), subcutaneously transplanted MX-1 cells, HER3-ADC (1); assay type: in vivo; details: MX-1 s.c. in nude mice; HER3-ADC (1) 3 mg/kg iv Day 0, 7, 15; olaparib 100 mg/kg po, talazoparib 0.4 mg/kg po once a day, five times a week, two weeks
Protocol: as §7, §8
Human breast cancer cell line MX-1 was suspended into 50% Matrigel matrix, subcutaneously transplanted at 5×10^6 cells into the right side of female nude mice, and the mice were randomly grouped 13 days after the transplantation (Day 0). The HER3-ADC (1) was intravenously administered to the tail vein at a dose of 3 mg/kg on Day 0, Day 7 and Day 15. […] Single administration groups of each drug, a combined administration group, and a solvent administration group as a control group were set up.

[11] = tested on: Human gastric cancer cell line NCI-N87; assay type: in vivo, BALB/c nude mice; details: NCI-N87 s.c. in nude mice; HER2-ADC (1) 1 mg/kg iv Day 0; olaparib 50 mg/kg, talazoparib 0.4 mg/kg once a day, five times a week, two weeks
Protocol: as §3, §5
Talazoparib was dissolved with DMSO, diluted with 0.5% hydroxypropyl methylcellulose, and orally administered in a fluid volume of 10 mL/kg.
Human gastric cancer cell line NCI-N87, which was purchased from ATCC (American Type Culture Collection), was suspended into physiological saline, subcutaneously transplanted at 1×10^7 cells into the right side of female nude mice, and the mice were randomly grouped 6 days after the transplantation (Day 0). […] Single administration groups of each drug, a combined administration group, and a solvent administration group as a control group were set up.

[12] = tested on: Human breast cancer cell line MX-1; assay type: in vivo; details: MX-1 s.c. in nude mice; HER2-ADC (1) 3 mg/kg iv Day 0; olaparib 100 mg/kg po, talazoparib 0.4 mg/kg po once a day, five times a week, two weeks
Protocol: as §7
Human breast cancer cell line MX-1, which was purchased from CLS (Cell Lines Service), was suspended into 50% Matrigel matrix, subcutaneously transplanted at 5×10^6 cells into the right side of female nude mice, and the mice were randomly grouped 13 days after the transplantation (Day 0). The HER2-ADC (1) was intravenously administered to the tail vein at a dose of 3 mg/kg on Day 0. […] Single administration groups of each drug, a combined administration group, and a solvent administration group as a control group were set up.

[13] = tested on: Human breast cancer cell line HCC1806; details: mouse, in vivo
Protocol: as §3, §5
Tumor growth inhibition (TGI) was calculated in accordance with the following calculation formula.
as §4
Rucaparib (camsylate) was dissolved with DMSO, diluted with physiological saline, and orally administered in a fluid volume of 10 mL/kg. Talazoparib was dissolved with DMSO, diluted with 10% N,N-Dimethylacetamide/5% Kolliphor HS 15/Dulbecco's Phosphate-Buffered Saline, and orally administered in a fluid volume of 10 mL/kg.
Human breast cancer cell line HCC1806, which was Purchased from ATCC, was suspended into physiological saline, subcutaneously transplanted at 1×10^6 cells into the right side of female nude mice, and the mice were randomly grouped 10 days after the transplantation (Day 0). […] Single administration groups of each drug, a combined administration group, and a solvent administration group as a control group were set up, and tumor growth inhibition (TGI) on Day 21 was calculated.

[14] = tested on: Human breast cancer cell line JIMT-1; details: mouse, in vivo
Protocol: Measurement and calculation formula: In all studies, the major axis and minor axis of tumors were measured twice a week with an electronic digital caliper (CD15-CX, Mitutoyo Corp.), and the tumor volume (mm^3) was calculated.
as §5, §6
Human breast cancer cell line JIMT-1, which was purchased from DSMZ (Deutsche Sammlung von Mikroorganismen and Zellkulturen GmbH), was suspended into physiological saline, subcutaneously transplanted at 5×10^6 cells into the right side of female nude mice, and the mice were randomly grouped 10 days after the transplantation (Day 0). The HER2-ADC (1) was intravenously administered to the tail vein at a dose of 10 mg/kg on Day 0. […] Single administration groups of each drug, a combined administration group, and a solvent administration group as a control group were set up.

[15] = 6 days, rucaparib (phosphate), >0 synergistic
[16] = all combinations with olaparib, talazoparib, rucaparib, niraparib
[17] = KPL-4 s.c. in nude mice, last day of study, HER2-ADC (1) 7.5 mg/kg iv Day 0, olaparib 50 mg/kg ip, niraparib 50 mg/kg po, talazoparib 0.4 mg/kg po, rucaparib (camsylate) 150 mg/kg po, once a day, five times a week, two weeks

Structure (SMILES): CC[C@@]1(O)C(=O)OCc2c1cc1n(c2=O)Cc2c-1nc1cc(F)c(C)c3c1c2[C@@H](NC(=O)CO)CC3 [Compound (1)]
- Synergy Score of combination with Niraparib ([1]; 6 days, >0 synergistic): 1.61
- Synergy Score of combination with Olaparib ([1]; 6 days, >0 synergistic): 1.98
- Synergy Score of combination with Talazoparib ([1]; 6 days, >0 synergistic): 4.61
- Synergy Score of combination with Rucaparib [1, 15]: 2.48
- combination effect in cell growth inhibition study [1, 16]: synergistic effects
- Synergy Score of combination with Niraparib ([2]; 6 days, >0 synergistic): 1.23
- Synergy Score of combination with Talazoparib ([2]; 6 days, >0 synergistic): 4.58
- Synergy Score of combination with Olaparib ([2]; 6 days, >0 synergistic, 0 additive, <0 antagonistic): 3.21
- Synergy Score of combination with Rucaparib [2, 15]: 1.93
- combination effect in cell growth inhibition study [2, 16]: synergistic effects
- Synergy Score of combination with Niraparib ([3]; 6 days, >0 synergistic): 3.68
- Synergy Score of combination with Olaparib ([3]; 6 days, >0 synergistic): 3.97
- Synergy Score of combination with Talazoparib ([3]; 6 days, >0 synergistic): 4.86
- Synergy Score of combination with Rucaparib [3, 15]: 4.97
- combination effect in cell growth inhibition study [3, 16]: synergistic effects
- Synergy Score of combination with Niraparib ([4]; 6 days, >0 synergistic): 3.17
- Synergy Score of combination with Olaparib ([4]; 6 days, >0 synergistic): 3.39
- Synergy Score of combination with Talazoparib ([4]; 6 days, >0 synergistic): 5.66
- Synergy Score of combination with Rucaparib [4, 15]: 4.41
- combination effect in cell growth inhibition study [4, 16]: synergistic effects
- Synergy Score of combination with Niraparib ([5]; 6 days, >0 synergistic): 1.85
- Synergy Score of combination with Olaparib ([5]; 6 days, >0 synergistic): 1.56
- Synergy Score of combination with Talazoparib ([5]; 6 days, >0 synergistic): 3.25
- Synergy Score of combination with Rucaparib [5, 15]: 2.15
- combination effect in cell growth inhibition study [5, 16]: synergistic effects

Structure (SMILES): NC(=O)c1cccc2cn(-c3ccc([C@@H]4CCCNC4)cc3)nc12 [niraparib]
- tumor growth inhibition (TGI), single administration ([6]; mouse, in vivo): 39%
- mice euthanized due to weight loss [7]: 1 case out of 6 cases

Structure (SMILES): O=C(c1cc(Cc2n[nH]c(=O)c3ccccc23)ccc1F)N1CCN(C(=O)C2CC2)CC1 [olaparib]
- TGI, single administration [8]: 15%
- TGI, single administration [9]: 18%
- TGI, single administration [10]: 23%
- tumor growth inhibition (TGI), single administration [6, 17]: 21%
- TGI, single administration [11]: 26%
- TGI, single administration [12]: 44%

Structure (SMILES): CNCc1ccc(-c2[nH]c3cc(F)cc4c3c2CCNC4=O)cc1 [rucaparib]
- tumor growth inhibition (TGI), single administration [6, 17]: 42%
- mice euthanized due to weight loss [7]: 1 case out of 6 cases

Structure (SMILES): Cn1ncnc1[C@H]1c2n[nH]c(=O)c3cc(F)cc(c23)N[C@@H]1c1ccc(F)cc1 [talazoparib]
- TGI, single administration [8]: 12%
- TGI, single administration [9]: 19%
- TGI, single administration [10]: 49%
- TGI, single administration [13]: 27%
- tumor growth inhibition (TGI), single administration [6, 17]: 31%
- TGI, single administration [11]: -2%
- TGI, single administration [14]: 13%
- TGI, single administration [12]: 47%
